target: Genome polyprotein (Dengue virus type 2 (strain Thailand/NGS-C/1944), UniProt P14340); experiment: DENV2 Protease Assay; conditions: pH 8.5
Method: To measure the inhibitory activities of the compounds, the DENV2 NS2B-NS3 protease activities were measured in the presence of the compounds using Bz-Nle-Lys-Arg-Arg-AMC as a substrate. The enzyme concentration in the assay was 125 nM, and the substrate concentration was 20 µM in 10 mM Tris-HCl pH 8.5, 20% glycerol, and 1 mM CHAPS. The inhibitor concentrations were 100 µM for the first round and between 3.125 and 400 µM for the compounds 16 and 19 in the second round. Before adding the substrate, the enzyme and the inhibitors were incubated at 37 °C for 15 min. All reactions were performed in 96-well plates with a final volume of 50 µL per each wells using the FLx800 fluorescence microplate reader (excitation = 380 nm; emission = 460 nm).

Sequence of Genome polyprotein (P14340 1346-1475 limits assumed): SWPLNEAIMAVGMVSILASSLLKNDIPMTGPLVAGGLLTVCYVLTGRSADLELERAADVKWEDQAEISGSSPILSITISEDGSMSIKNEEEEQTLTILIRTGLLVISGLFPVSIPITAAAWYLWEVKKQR
Sequence of Genome polyprotein (P14340 1476-2093 limits assumed): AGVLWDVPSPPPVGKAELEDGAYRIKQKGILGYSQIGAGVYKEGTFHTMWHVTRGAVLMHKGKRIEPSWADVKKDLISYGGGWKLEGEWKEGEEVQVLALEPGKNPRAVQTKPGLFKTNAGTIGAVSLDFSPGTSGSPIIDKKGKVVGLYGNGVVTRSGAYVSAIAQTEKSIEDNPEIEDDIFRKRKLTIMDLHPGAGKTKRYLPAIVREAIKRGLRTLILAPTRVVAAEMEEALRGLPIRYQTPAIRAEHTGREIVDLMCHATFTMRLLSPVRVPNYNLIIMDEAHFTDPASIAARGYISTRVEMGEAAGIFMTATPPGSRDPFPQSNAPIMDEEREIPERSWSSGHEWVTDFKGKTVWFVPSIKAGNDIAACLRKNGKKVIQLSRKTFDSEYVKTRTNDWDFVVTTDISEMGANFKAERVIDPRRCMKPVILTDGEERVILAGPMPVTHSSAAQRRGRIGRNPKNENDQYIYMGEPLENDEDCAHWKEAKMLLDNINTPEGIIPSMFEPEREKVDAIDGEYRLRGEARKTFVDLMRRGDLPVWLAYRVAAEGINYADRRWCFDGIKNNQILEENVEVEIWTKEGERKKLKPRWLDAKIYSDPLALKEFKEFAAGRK

**Q.** For `S=C(Nc1ccc(C(c2c[nH]c3ccccc23)c2c[nH]c3ccccc23)cc1)Nc1cccc(Br)c1`, which IC50 is on record?
**A.** The IC50 was greater than 100 µM.

**Q.** How did the IC50 turn out when `CN1CCN(S(=O)(=O)c2ccc(N3C(=O)c4ccccc4C3=O)cc2)CC1` [2-(4-(4-Methylpiperazin-1-ylsulphonyl)phenyl)isoindoline-1,3-dione (6)] was run?
**A.** The IC50 was greater than 100 µM.

**Q.** Which IC50 does the source give for `O=C1c2ccccc2C(=O)N1c1ccc(S(=O)(=O)N2CCCCC2)cc1` [2-(4-(Piperidin-1-ylsulphonyl)phenyl)isoindoline-1,3-dione (5)] here?
**A.** Its IC50 is greater than 100 µM.

**Q.** Which IC50 does the source give for `CN(C)S(=O)(=O)c1ccc(N2C(=O)c3ccccc3C2=O)cc1` [4-(1,3-Dioxoisoindolin-2-yl)-N,N-dimethyl benzenesulphonamide (2)] here?
**A.** Its IC50 is greater than 100 µM.

**Q.** Which IC50 does the source give for `O=C1c2ccccc2C(=O)N1c1ccc(S(=O)(=O)Nc2ccccc2O)cc1` [4-(1,3-Dioxoisoindolin-2-yl)-N-(2-hydroxyphenyl)benzenesulphonamide (8)] here?
**A.** The IC50 was greater than 100 µM.

**Q.** For `COc1cccc(NS(=O)(=O)c2ccc(N3C(=O)c4ccccc4C3=O)cc2)c1` [4-(1,3-Dioxoisoindolin-2-yl)-N-(3-methoxyphenyl)benzenesulphonamide (9)], which IC50 is on record?
**A.** The IC50 was greater than 100 µM.

**Q.** `CCc1ccc(NS(=O)(=O)c2ccc(N3C(=O)c4ccccc4C3=O)cc2)cc1` [4-(1,3-Dioxoisoindolin-2-yl)-N-(4-ethylphenyl)benzenesulphonamide (16)] was tested. Which IC50 did it give?
**A.** Its IC50 is 48.2 µM.

**Q.** For `COc1ccc(NS(=O)(=O)c2ccc(N3C(=O)c4ccccc4C3=O)cc2)cc1` [4-(1,3-Dioxoisoindolin-2-yl)-N-(4-methoxyphenyl)benzenesulphonamide (10)], which IC50 is on record?
**A.** The IC50 was greater than 100 µM.

**Q.** How did the IC50 turn out when `O=C1c2ccccc2C(=O)N1c1ccc(S(=O)(=O)Nc2ccc([N+](=O)[O-])cc2)cc1` [4-(1,3-Dioxoisoindolin-2-yl)-N-(4-nitrophenyl)benzenesulphonamide (17)] was run?
**A.** Its IC50 is greater than 100 µM.

**Q.** Which IC50 does the source give for `O=C1c2ccccc2C(=O)N1c1ccc(S(=O)(=O)Nc2cccc3ccccc23)cc1` [4-(1,3-Dioxoisoindolin-2-yl)-N-(naphthalen-1-yl)benzenesulphonamide (19)] here?
**A.** The IC50 was 122 µM.

**Q.** How did the IC50 turn out when `Cc1cccc(NS(=O)(=O)c2ccc(N3C(=O)c4ccccc4C3=O)cc2)c1` [4-(1,3-Dioxoisoindolin-2-yl)-N-m-tolylbenzenesulphonamide (14)] was run?
**A.** The IC50 was greater than 100 µM.

**Q.** How did the IC50 turn out when `Cc1ccccc1NS(=O)(=O)c1ccc(N2C(=O)c3ccccc3C2=O)cc1` [4-(1,3-Dioxoisoindolin-2-yl)-N-o-tolylbenzenesulphonamide (13)] was run?
**A.** Its IC50 is greater than 100 µM.

**Q.** `Cc1ccc(NS(=O)(=O)c2ccc(N3C(=O)c4ccccc4C3=O)cc2)cc1` [4-(1,3-Dioxoisoindolin-2-yl)-N-p-tolylbenzenesulphonamide (15)] was tested. Which IC50 did it give?
**A.** Its IC50 is greater than 100 µM.

**Q.** How did the IC50 turn out when `O=C1c2ccccc2C(=O)N1c1ccc(S(=O)(=O)NCCc2ccccc2)cc1` [4-(1,3-Dioxoisoindolin-2-yl)-N-phenethylbenzenesulphonamide (20)] was run?
**A.** The IC50 was greater than 100 µM.

**Q.** With `O=C1c2ccccc2C(=O)N1c1ccc(S(=O)(=O)Nc2ccccc2)cc1` [4-(1,3-Dioxoisoindolin-2-yl)-N-phenylbenzenesulphonamide (7)] as the compound, how does the IC50 read?
**A.** The IC50 was greater than 100 µM.

**Q.** For `NS(=O)(=O)c1ccc(N2C(=O)c3ccccc3C2=O)cc1` [4-(1,3-Dioxoisoindolin-2-yl)benzenesulphonamide (1)], which IC50 is on record?
**A.** Its IC50 is greater than 100 µM.

**Q.** Which IC50 does the source give for `O=C(O)c1ccc(NS(=O)(=O)c2ccc(N3C(=O)c4ccccc4C3=O)cc2)cc1` [4-(4-(1,3-Dioxoisoindolin-2-yl)phenylsulphonamido)benzoic acid (18)] here?
**A.** The IC50 was greater than 100 µM.

**Q.** `O=C1c2ccccc2C(=O)N1c1ccc(S(=O)(=O)Nc2cccc(Cl)c2)cc1` [N-(3-chlorophenyl)-4-(1,3-dioxoisoindolin-2-yl)benzenesulphonamide (11)] was tested. Which IC50 did it give?
**A.** The IC50 was greater than 100 µM.

**Q.** With `O=C1c2ccccc2C(=O)N1c1ccc(S(=O)(=O)Nc2ccc(Cl)cc2)cc1` [N-(4-chlorophenyl)-4-(1,3-dioxoisoindolin-2-yl)benzenesulphonamide (12)] as the compound, how does the IC50 read?
**A.** Its IC50 is greater than 100 µM.

From BindingDB's records for doi:10.1016/j.bioorg.2015.07.005 (Birla Institute of Technology, 2015)
